According to patent US10434112B2, “Use of agonists of formyl peptide receptor 2 for treating dermatological diseases” (Allergan, Inc., priority 2013, dated 2019):

target: human FPR2 receptor (Homo sapiens (Human), UniProt P25090); test: FLIPR Ca+2 response in HEK-Gα16 cells stably expressing the human FPR2 receptor; assay type: cell-based; set-up: FPR2 (% eff): unit not given here; conditions: Table 4
Description: FLIPR: HEK-Gα16 cells stably expressing the human FPR2 receptor was utilized. Cells were plated into 384-well poly-D-lysine coated plates at a density of 18,000 cells per well one day prior to use. The growth media was DMEM medium supplemented with 10% fetal bovine serum (FBS), 1% antibiotic-antimycotic, 50 μg/ml hygromycin, and 400 μg/ml geneticin. On the day of the experiment, the cells were washed twice with Hank's Balanced Salt Solution supplemented with 20 mM HEPES (HBSS/hepes buffer). The cells were then dye loaded with 2 μM Fluo-4 diluted in the HBSS/Hepes buffer and incubated at 37° C. for 40 minutes. Extracellular dye was removed by washing the cell plates four times prior to placing the plates in the FLIPR (Fluorometric Imaging Plate Reader, Molecular Devices). Ligands were diluted in HBSS/Hepes buffer and prepared in 384-well microplates. Data for Ca^+2 responses were obtained in relative fluorescence units.

Chain of human FPR2 receptor (P25090 whole entry): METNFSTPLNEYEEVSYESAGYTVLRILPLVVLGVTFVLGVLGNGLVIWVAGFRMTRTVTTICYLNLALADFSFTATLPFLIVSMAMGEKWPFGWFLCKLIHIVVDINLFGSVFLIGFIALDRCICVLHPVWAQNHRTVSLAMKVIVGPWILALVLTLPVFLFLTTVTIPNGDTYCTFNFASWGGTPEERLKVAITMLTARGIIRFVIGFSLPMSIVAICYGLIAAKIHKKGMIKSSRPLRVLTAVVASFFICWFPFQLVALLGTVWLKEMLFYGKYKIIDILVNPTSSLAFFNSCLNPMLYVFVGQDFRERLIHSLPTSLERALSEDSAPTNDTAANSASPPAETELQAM

Structure (SMILES) | EC50 [nM]
CC[C@H](C)[C@H](NC(=O)Nc1ccc(Br)cc1F)C(=O)NCC(N)=O [Compound 62, (2S,3S)-N-(2-amino-2-oxoethyl)-2-{[(4-bromo-2-fluorophenyl)carbamoyl]amino}-3-methylpentanamide] | 10.3
CC(=O)CNC(=O)[C@H](Cc1ccccc1)NC(=O)Nc1ccc(Br)cc1F [Compound 68, (2S)-2-{[(4-bromo-2-fluorophenyl)carbamoyl]amino}-N-(2-oxopropyl)-3-phenylpropanamide] | 12.4
O=C(Nc1ccc(Br)cc1F)N[C@@H](Cc1ccccc1)C(=O)NCCO [Compound 71, (2S)-2-{[(4-bromo-2-fluorophenyl)carbamoyl]amino}-N-(2-hydroxyethyl)-3-phenylpropanamide] | 15.6
CC(C)C[C@H](NC(=O)Nc1ccc(Br)cc1)C(=O)NCC(N)=O [Compound 77, (2S)-N-(2-amino-2-oxoethyl)-2-{[(4-bromophenyl)carbamoyl]amino}-4-methylpentanamide] | 1.1
CC1(CCc2ccccc2F)NC(=O)N(NC(=O)Nc2ccc(Br)cc2)C1=O (stereo not shown) [Compound 80, 1-(4-bromophenyl)-3-{4-[2-(2-fluorophenyl)ethyl]-4-methyl-2,5-dioxoimidazolidin-1-yl}urea] | 14.3

same assay, conditions: Table 4; value in brackets, given mostly as fraction

Structure (SMILES) | FPR2 (% eff)
CSc1ccc(NC(=O)Nc2ccc3c(c2)C(=O)N(CCCN)C(C)C3)cc1 (stereo not shown) [Compound 42, 1-[2-(3-aminopropyl)-3-methyl-1-oxo-1,2,3,4-tetrahydroisoquinolin-7-yl]-3-[4-(methylsulfanyl)phenyl]urea] | 1.00
N#Cc1ccc(C2Cc3ccc(NC(=O)Nc4ccc(I)cc4)cc3C(=O)N2CCCN)cc1 (stereo not shown) [Compound 43, 1-[2-(3-aminopropyl)-3-(4-cyanophenyl)-1-oxo-1,2,3,4-tetrahydroisoquinolin-7-yl]-3-(4-iodophenyl)urea] | 0.94
CNC(=O)C1C(C(=O)Nc2ccc(Br)cc2)C2CCC1C21CC1 (stereo not shown) [Compound 46, N-(4-bromophenyl)-N′-methylspiro[bicyclo[2.2.1]heptane-7,1′-cyclopropane]-2,3-dicarboxamide] | 1.0
CCNC(=O)C1C(C(=O)Nc2ccc(Br)cc2)C2CCC1C21CC1 (stereo not shown) [Compound 47, N-(4-bromophenyl)-N′-ethylspiro[bicyclo[2.2.1]heptane-7,1′-cyclopropane]-2,3-dicarboxamide] | 1.0
CC(C)NC(=O)C1C(C(=O)Nc2ccc(Br)cc2)C2CCC1C21CC1 (stereo not shown) [Compound 48, N-(4-bromophenyl)-N′-(propan-2-yl)spiro[bicyclo[2.2.1]heptane-7,1′-cyclopropane]-2,3-dicarboxamide] | 1.0
CCC1(CC)NC(=O)N(NC(=O)Nc2ccc(Br)cc2)C1=O [Compound 49, 1-(4-bromophenyl)-3-(4,4-diethyl-2,5-dioxoimidazolidin-1-yl)urea] | 0.98
CCC1(CC)NC(=O)N(NC(=O)Nc2ccc(Br)cc2F)C1=O [Compound 50, 1-(4-bromo-2-fluorophenyl)-3-(4,4-diethyl-2,5-dioxoimidazolidin-1-yl)urea] | 1.0
O=C(Nc1ccc(Br)cc1)NN1C(=O)NC2(CCCCC2)C1=O [Compound 52, 1-(4-bromophenyl)-3-(2,4-dioxo-1,3-diazaspiro[4.5]dec-3-yl)urea] | 1.0
O=C(O)CNC(=O)[C@H](Cc1ccccc1)NC(=O)Nc1ccc(Br)cc1 [Compound 55, {[(2S)-2-{[(4-bromophenyl)carbamoyl]amino}-3-phenylpropanoyl]amino} acetic acid] | 0.99
O=C(O)CCNC(=O)[C@H](Cc1ccccc1)NC(=O)Nc1ccc(Br)cc1 [Compound 56, 3-{[(2S)-2-{[(4-bromophenyl)carbamoyl]amino}-3-phenylpropanoyl]amino} propanoic acid] | 0.98
O=C(Nc1ccc(Br)cc1)N[C@@H](Cc1ccccc1)C(=O)NCCO [Compound 58, (2S)-2-{[(4-bromophenyl)carbamoyl]amino}-N-(2-hydroxyethyl)-3-phenylpropanamide] | 0.86
CC[C@H](C)[C@H](NC(=O)Nc1ccc(Br)cc1F)C(=O)NCC(=O)O [Compound 59, {[(2S,3S)-2-{[(4-bromo-2-fluorophenyl)carbamoyl]amino}-3-methylpentanoyl]amino} acetic acid] | 0.95
CC[C@H](C)[C@H](NC(=O)Nc1ccc(Br)cc1)C(=O)NCC(N)=O [Compound 60, (2S,3S)-N-(2-amino-2-oxoethyl)-2-{[(4-bromophenyl)carbamoyl]amino}-3-methylpentanamide] | 0.91
CCC1(C(C)C)NC(=O)N(NC(=O)Nc2ccc(Br)cc2F)C1=O (stereo not shown) [Compound 61, 1-(4-bromo-2-fluorophenyl)-3-[4-ethyl-2,5-dioxo-4-(propan-2-yl)imidazolidin-1-yl]urea] | 0.97
CC[C@H](C)[C@H](NC(=O)Nc1ccc(Br)cc1F)C(=O)NCC(N)=O [Compound 62, (2S,3S)-N-(2-amino-2-oxoethyl)-2-{[(4-bromo-2-fluorophenyl)carbamoyl]amino}-3-methylpentanamide] | 100
CC[C@H](C)[C@H](NC(=O)Nc1ccc(Br)cc1)C(=O)NCC(C)=O [Compound 63, (2S,3S)-2-{[(4-bromophenyl)carbamoyl]amino}-3-methyl-N-(2-oxopropyl)pentanamide] | 0.97
CC(C)C1(C(C)C)NC(=O)N(NC(=O)Nc2ccc(Br)cc2)C1=O [Compound 64, 1-(4-bromophenyl)-3-[2,5-dioxo-4,4-di(propan-2-yl)imidazolidin-1-yl]urea] | 1.0
O=C(Nc1ccc(Br)cc1)NN1C(=O)NC(C2CC2)(C2CC2)C1=O [Compound 65, 1-(4-bromophenyl)-3-(4,4-dicyclopropyl-2,5-dioxoimidazolidin-1-yl)urea] | 1.0
CC(=O)CNC(=O)[C@H](Cc1ccccc1)NC(=O)Nc1ccc(Br)cc1F [Compound 68, (2S)-2-{[(4-bromo-2-fluorophenyl)carbamoyl]amino}-N-(2-oxopropyl)-3-phenylpropanamide] | 0.94

Structure (SMILES) | FPR2 (% eff)
CCC1(CCc2ccccc2)NC(=O)N(NC(=O)Nc2ccc(Br)cc2F)C1=O (stereo not shown) [Compound 69, 1-(4-bromo-2-fluorophenyl)-3-[4-ethyl-2,5-dioxo-4-(2-phenylethyl)imidazolidin-1-yl]urea] | 0.91
CCC[C@H](NC(=O)Nc1ccc(Br)cc1)C(=O)O [Compound 70, (2S)-2-{[(4-bromophenyl)carbamoyl]amino}pentanoic acid] | 1.0
O=C(Nc1ccc(Br)cc1F)N[C@@H](Cc1ccccc1)C(=O)NCCO [Compound 71, (2S)-2-{[(4-bromo-2-fluorophenyl)carbamoyl]amino}-N-(2-hydroxyethyl)-3-phenylpropanamide] | 0.98
CCC[C@H](NC(=O)Nc1ccc(Br)cc1)C(=O)NCC(=O)OC [Compound 72, methyl {[(2S)-2-{[(4-bromophenyl)carbamoyl]amino}pentanoyl]amino}acetate] | 0.86
CCC[C@H](NC(=O)Nc1ccc(Br)cc1)C(=O)NCC(=O)OC(C)C [Compound 73, propan-2-yl {[(2S)-2-{[(4-bromophenyl)carbamoyl]amino}pentanoyl]amino}acetate] | 1.0
CCC[C@H](NC(=O)Nc1ccc(Br)cc1F)C(=O)NCC(=O)O [Compound 74, {[(2S)-2-{[(4-bromo-2-fluorophenyl)carbamoyl]amino}pentanoyl]amino}acetic acid] | 0.91
CC(C)C[C@H](NC(=O)Nc1ccc(Br)cc1)C(=O)NCCO [Compound 75, (2S)-2-{[(4-bromophenyl)carbamoyl]amino}-N-(2-hydroxyethyl)-4-methylpentanamide] | 0.76
CC1(CCc2ccco2)NC(=O)N(NC(=O)Nc2ccc(Br)cc2)C1=O (stereo not shown) [Compound 76, 1-(4-bromophenyl)-3-{4-[2-(furan-2-yl)ethyl]-4-methyl-2,5-dioxoimidazolidin-1-yl}urea] | 0.99
CC(C)C[C@H](NC(=O)Nc1ccc(Br)cc1)C(=O)NCC(N)=O [Compound 77, (2S)-N-(2-amino-2-oxoethyl)-2-{[(4-bromophenyl)carbamoyl]amino}-4-methylpentanamide] | 1.0
CC(=O)CNC(=O)[C@H](CC(C)C)NC(=O)Nc1ccc(Br)cc1 [Compound 78, (2S)-2-{[(4-bromophenyl)carbamoyl]amino}-4-methyl-N-(2-oxopropyl)pentanamide] | 0.82
CCC[C@H](NC(=O)Nc1ccc(Br)cc1)C(=O)NCC(N)=O [Compound 79, (2S)-N-(2-amino-2-oxoethyl)-2-{[(4-bromophenyl)carbamoyl]amino}pentanamide] | 0.97
CC1(CCc2ccccc2F)NC(=O)N(NC(=O)Nc2ccc(Br)cc2)C1=O (stereo not shown) [Compound 80, 1-(4-bromophenyl)-3-{4-[2-(2-fluorophenyl)ethyl]-4-methyl-2,5-dioxoimidazolidin-1-yl}urea] | 99
CCC[C@H](NC(=O)Nc1ccc(Br)cc1F)C(=O)NCC(N)=O [Compound 81, (2S)-N-(2-amino-2-oxoethyl)-2-{[(4-bromo-2-fluorophenyl)carbamoyl]amino} pentanamide] | 0.96
CC1(CCc2ccc(F)cc2)NC(=O)N(NC(=O)Nc2ccc(Br)cc2)C1=O (stereo not shown) [Compound 82, 1-(4-bromophenyl)-3-{4-[2-(4-fluorophenyl)ethyl]-4-methyl-2,5-dioxoimidazolidin-1-yl}urea] | 1.0
CC1(CCc2cccc(F)c2)NC(=O)N(NC(=O)Nc2ccc(Br)cc2)C1=O (stereo not shown) [Compound 83, 1-(4-bromophenyl)-3-{4-[2-(3-fluorophenyl)ethyl]-4-methyl-2,5-dioxoimidazolidin-1-yl}urea] | 1.0
CC(C)C[C@H](NC(=O)Nc1ccc(Br)cc1F)C(=O)NCC(N)=O [Compound 84, (2S)-N-(2-amino-2-oxoethyl)-2-{[(4-bromo-2-fluorophenyl)carbamoyl]amino}-4-methylpentanamide] | 0.95
CC(=O)CNC(=O)[C@H](CC(C)C)NC(=O)Nc1ccc(Br)cc1F [Compound 85, (2S)-2-{[(4-bromo-2-fluorophenyl)carbamoyl]amino}-4-methyl-N-(2-oxopropyl)pentanamide] | 0.99
CC1(CCc2ccc(O)cc2)NC(=O)N(NC(=O)Nc2ccc(Br)cc2)C1=O (stereo not shown) [Compound 86, 1-(4-bromophenyl)-3-{4-[2-(4-hydroxyphenyl)ethyl]-4-methyl-2,5-dioxoimidazolidin-1-yl}urea] | 1.0
CC(C)C[C@H](NC(=O)Nc1ccc(Br)cc1F)C(=O)N[C@@H](C)C(=O)O [Compound 87, (2S)-2-{[(2S)-2-{[(4-bromo-2-fluorophenyl)carbamoyl]amino}-4-methylpentanoyl]amino}propanoic acid] | 0.95
